Laboratory results published in EP4707280A1, “1,4-CINEOLE DERIVATIVE AND INTERMEDIATE THEREOF, HERBICIDE CONTAINING SAID DERIVATIVE AS ACTIVE INGREDIENT, METHOD FOR USING HERBICIDE, AND METHOD FOR PREPARING AGROCHEMICAL COMPOSITION” (HOKKO CHEMICAL INDUSTRY CO., LTD., priority 2023, dated 2024).

Experiments:
Assay type in all cases: in vivo
[1] = test system: Echinochloa crus-galli var. formosensis; experiment: Test Example 1: herbicidal effect test by soil application in paddy rice; settings: 120 g active ingredient per 10 ares, applied immediately after sowing, flooded pots, 14 days after application; for pest or weed control at 1200 g/ha: Echinochloa crus-galli, soil, 336 h, read-out: weed inhibition rate
Summary of the method: (§1)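 Pre-emergence paddy treatment: diluted emulsifiable concentrate applied by dropper at 120 g a.i./10 ares immediately after sowing. Seeds (30 per species, 0–1 cm deep) in fertilized, puddled paddy soil kept under ~3 cm flood in a glass greenhouse.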

Scirpus juncoides [2] = experiment: as above; settings: 120 g active ingredient per 10 ares, applied immediately after sowing, flooded pots, 14 days after application; for pest or weed control at 1200 g/ha: Schoenoplectiella juncoides, soil, 336 h, read-out: weed inhibition rate
Summary of the method: as §1

Monochoria vaginalis [3] = experiment: as above; settings: 120 g active ingredient per 10 ares, applied immediately after sowing, flooded pots, 14 days after application; for pest or weed control at 1200 g/ha: Pontederia vaginalis, soil, 336 h, read-out: weed inhibition rate
Procedure: Wagner pots with an area of […] were filled with paddy soil, followed by addition of water and incorporation of chemical fertilizer (N:P:K = 16:16:16), after which puddling was performed. After that, seeds of Echinochloa crus-galli var. formosensis, broad-leaved weeds (Lindernia pyxidaria and Monochoria vaginalis), and Scirpus juncoides were sown at a depth of 0 cm to 1 cm, 30 seeds each. Immediately after sowing, the pots were flooded and a water depth of approximately 3 cm was maintained. Subsequent management was conducted in a glass greenhouse. Immediately thereafter, an emulsifiable concentrate prepared according to Formulation Example 5 using the compound shown below was diluted with water, and a specified amount of the diluted solution was applied by dropper. The amount of the active ingredient to be applied was equivalent to 120 g per 10 ares.
The present test was conducted in duplicate for each chemical concentration group, and the weed inhibition rate (%) was determined 14 days after chemical application using the following formula (Math. 1). [formula]

[4] = test system: Echinochloa crus-galli var. formosensis; experiment: Test Example 2: herbicidal effect test by application during growth period of paddy rice; settings: 120 g per 10 ares, applied seven days after sowing, flooded pots, 14 days after application; for inhibition at 1200 g/ha: Echinochloa crus-galli, read-out: weed inhibition rate
Summary of the method: (§2)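 Paddy soil in flooded pots (water depth about 3 cm) was sown with weed seeds and kept in a glass greenhouse. Seven days after sowing, a diluted emulsifiable concentrate was applied by dropper at 120 g active ingredient per 10 ares. Weed inhibition was evaluated 14 days after application, in duplicate.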

Monochoria vaginalis [5] = experiment: as above; settings: 120 g per 10 ares, applied seven days after sowing, flooded pots, 14 days after application; for inhibition at 1200 g/ha: Pontederia vaginalis, read-out: weed inhibition rate
Summary of the method: as §2

Scirpus juncoides [6] = experiment: as above; settings: 120 g per 10 ares, applied seven days after sowing, flooded pots, 14 days after application; for inhibition at 1200 g/ha: Schoenoplectiella juncoides, read-out: weed inhibition rate
Summary of the method: as §2

Digitaria ciliaris [7] = experiment: Test Example 3: herbicidal effect test by soil application in upland field; settings: 120 g per 10 ares, sprayed one day after sowing, 14 days after application; for inhibition at 1200 g/ha: Digitaria ciliaris, read-out: weed inhibition rate
Summary of the method: (§3)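 Weed inhibition (%) was assessed 14 days after treatment, in duplicate per concentration group. Seeds had been mixed into the upper 1 cm of upland alluvial loam, and the soil surface was sprayed one day later with the diluted emulsifiable concentrate at 120 g active ingredient per 10 ares.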

Echinochloa crus-galli [8] = experiment: as above; settings: 120 g per 10 ares, sprayed one day after sowing, 14 days after application; for inhibition at 1200 g/ha: Echinochloa crus-galli, read-out: weed inhibition rate
Summary of the method: as §3

Digitaria ciliaris [9] = experiment: Test Example 4: herbicidal effect test by stem and leaf treatment in upland field; settings: 120 g per 10 ares, sprayed seven days after sowing, upland soil, 14 days after application; for inhibition at 1200 g/ha: Digitaria ciliaris, read-out: weed inhibition rate
Echinochloa crus-galli [10] = experiment: as above; settings: 120 g per 10 ares, sprayed seven days after sowing, upland soil, 14 days after application; for inhibition at 1200 g/ha: Echinochloa crus-galli, read-out: weed inhibition rate
[11] = test system: Echinochloa crus-galli var. formosensis; experiment: Test Example 5: herbicidal effect test by soil application in paddy rice (low dose); settings: 7.5 g per 10 ares, applied immediately after sowing, flooded pots, 14 days after application; for inhibition at 75 g/ha: Echinochloa crus-galli, soil, 336 h, read-out: weed inhibition rate
Summary of the method: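 Paddy-soil pots, weeds sown 0–1 cm deep and flooded to about 3 cm in a greenhouse. Emulsifiable concentrate diluted in water and dropped in right after sowing at 7.5 g active ingredient per 10 ares. Duplicates; effect scored 14 days after application.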

[12] = test system: Echinochloa crus-galli var. formosensis; experiment: Test Example 6: herbicidal effect test by application during growth period of paddy rice (low dose); settings: 7.5 g per 10 ares, applied seven days after sowing, flooded pots, 14 days after application; for inhibition at 75 g/ha: Echinochloa crus-galli, read-out: weed inhibition rate
Summary of the method: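 Emulsifiable concentrate, water-diluted, dropped onto flooded paddy pots 7 days post-sowing at 7.5 g active ingredient/10 a. Greenhouse-grown weeds; percent inhibition scored at day 14 after treatment.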

Digitaria ciliaris [13] = experiment: Test Example 7: herbicidal effect test by soil application in upland field (low dose); settings: 7.5 g per 10 ares, sprayed one day after sowing, 14 days after application
Summary of the method: (§4)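 Upland alluvial loam pots, seeds mixed into top 1 cm of soil; one day after sowing, diluted emulsifiable concentrate sprayed on soil at 100 L/10 a, giving 7.5 g active ingredient/10 a. Duplicate pots; weed inhibition rate (%) scored 14 days after application.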

Echinochloa crus-galli [14] = experiment: as above; settings: 7.5 g per 10 ares, sprayed one day after sowing, 14 days after application
Summary of the method: as §4

Digitaria ciliaris [15] = experiment: Test Example 8: herbicidal effect test by stem and leaf treatment in upland field (low dose); settings: 7.5 g per 10 ares, sprayed seven days after sowing, upland soil, 14 days after application
Echinochloa crus-galli [16] = experiment: as above; settings: 7.5 g per 10 ares; sprayed seven days after sowing, upland soil; 14 days after application
[17] = Digitaria ciliaris, read-out: weed inhibition rate

CC(C)[C@]12C[C@@H](OCc3ccccc3F)[C@](C)(C[C@@H]1Cl)O2 [1-12]
≥ 80%: weed inhibition rate [1] | weed inhibition rate (Scirpus juncoides [2]) | weed inhibition rate (Monochoria vaginalis [3]) | weed inhibition rate [4] | weed inhibition rate (Monochoria vaginalis [5]) | weed inhibition rate (Scirpus juncoides [6]) | weed inhibition rate (Digitaria ciliaris [7]) | weed inhibition rate (Echinochloa crus-galli [8]) | weed inhibition rate (Digitaria ciliaris [9]) | weed inhibition rate (Echinochloa crus-galli [10]) | weed inhibition rate [11] | weed inhibition rate [12] | weed inhibition rate (Digitaria ciliaris [13]) | weed inhibition rate (Echinochloa crus-galli [14]) | weed inhibition rate (Digitaria ciliaris [15]) | weed inhibition rate (Echinochloa crus-galli [16])

Cc1ccccc1CO[C@H]1C[C@]2(C)O[C@@]1(C(C)C)C[C@H]2OCc1ccccc1C [1-597, (1S,2R,4R,5S)-1-methyl-2,5-bis[(2-methylphenyl)methoxy]-4-isopropyl-7-oxabicyclo[2.2.1]heptane]
≥ 80%: pest or weed control at 1200 g/ha [1] | pest or weed control at 1200 g/ha (Scirpus juncoides [2]) | pest or weed control at 1200 g/ha (Monochoria vaginalis [3]) | inhibition at 1200 g/ha [4] | inhibition at 1200 g/ha (Monochoria vaginalis [5]) | inhibition at 1200 g/ha (Scirpus juncoides [6]) | inhibition at 1200 g/ha (Digitaria ciliaris [9]) | inhibition at 1200 g/ha (Echinochloa crus-galli [10])

CCC[C@@H]1C[C@]2(C)O[C@@]1(C(C)C)C[C@H]2OCc1ccccc1F [1-914, (1S,2R,4R,5R)-2-[(2-fluorophenyl)methoxy]-1-methyl-4-isopropyl-5-propyl-7-oxabicyclo[2.2.1]heptane]
≥ 80%: pest or weed control at 1200 g/ha [1] | pest or weed control at 1200 g/ha (Scirpus juncoides [2]) | pest or weed control at 1200 g/ha (Monochoria vaginalis [3]) | inhibition at 1200 g/ha [4] | inhibition at 1200 g/ha (Monochoria vaginalis [5]) | inhibition at 1200 g/ha (Scirpus juncoides [6]) | inhibition at 1200 g/ha (Digitaria ciliaris [7]) | inhibition at 1200 g/ha (Echinochloa crus-galli [8]) | inhibition at 1200 g/ha (Digitaria ciliaris [9]) | inhibition at 1200 g/ha (Echinochloa crus-galli [10]) | inhibition at 75 g/ha [11] | inhibition at 75 g/ha [12]

CC(C)[C@]12C[C@@H](OCc3ccccc3F)[C@](C)(CC1C1CCCC1)O2 (stereo partly drawn) [1-920, (1R,4S,5R)-2-cyclopentyl-5-[(2-fluorobenzyl)oxy]-1-isopropyl-4-methyl-7-oxabicyclo[2.2.1]heptane]
≥ 80%: pest or weed control at 1200 g/ha [1] | pest or weed control at 1200 g/ha (Scirpus juncoides [2]) | pest or weed control at 1200 g/ha (Monochoria vaginalis [3]) | inhibition at 1200 g/ha [4] | inhibition at 1200 g/ha (Monochoria vaginalis [5]) | inhibition at 1200 g/ha (Scirpus juncoides [6]) | inhibition at 1200 g/ha (Digitaria ciliaris [9]) | inhibition at 1200 g/ha (Echinochloa crus-galli [10]) | inhibition at 75 g/ha [11] | inhibition at 75 g/ha [12]

CC(C)[C@]12C[C@@H](OCc3ccccc3F)[C@](C)(CC1CCc1ccccc1)O2 (stereo partly drawn) [1-929, (1S,2R,4R)-2-((2-fluorobenzyl)oxy)-4-isopropyl-1-methyl-5-phenethyl-7-oxabicyclo[2.2.1]heptane]
≥ 80%: pest or weed control at 1200 g/ha [1] | pest or weed control at 1200 g/ha (Scirpus juncoides [2]) | pest or weed control at 1200 g/ha (Monochoria vaginalis [3]) | inhibition at 1200 g/ha [4] | inhibition at 1200 g/ha (Monochoria vaginalis [5]) | inhibition at 1200 g/ha (Digitaria ciliaris [7]) | inhibition at 1200 g/ha (Echinochloa crus-galli [8]) | inhibition at 1200 g/ha (Digitaria ciliaris [9]) | inhibition at 1200 g/ha (Echinochloa crus-galli [10]) | inhibition at 75 g/ha [11] | inhibition at 75 g/ha [12] | inhibition at 75 g/ha (Digitaria ciliaris [15]; [17])

CC(C)[C@]12C[C@@H](OCc3ccccc3F)[C@](C)(CC13OCCO3)O2 [1-936, (1R,4S,5R)-5-((2-fluorobenzyl)oxy)-1-isopropyl-4-methyl-7-oxaspiro[bicyclo[2.2.1]heptane-2,2'-[1,3]dioxolane]]
≥ 80%: pest or weed control at 1200 g/ha [1] | pest or weed control at 1200 g/ha (Scirpus juncoides [2]) | pest or weed control at 1200 g/ha (Monochoria vaginalis [3]) | inhibition at 1200 g/ha [4] | inhibition at 1200 g/ha (Digitaria ciliaris [7]) | inhibition at 1200 g/ha (Echinochloa crus-galli [8]) | inhibition at 1200 g/ha (Echinochloa crus-galli [10])

CC(C)[C@]12C[C@@H](OCc3ccccc3)[C@](C)(CC1=O)O2 [2-1, (1R,4S,5R)-5-(benzyloxy)-1-isopropyl-4-methyl-7-oxabicyclo[2.2.1]heptan-2-one]
≥ 80%: pest or weed control at 1200 g/ha [1] | pest or weed control at 1200 g/ha (Monochoria vaginalis [3]) | inhibition at 1200 g/ha [4] | inhibition at 1200 g/ha (Monochoria vaginalis [5]) | inhibition at 1200 g/ha (Digitaria ciliaris [7]) | inhibition at 1200 g/ha (Echinochloa crus-galli [8]) | inhibition at 1200 g/ha (Digitaria ciliaris [9]) | inhibition at 1200 g/ha (Echinochloa crus-galli [10])

CC(C)[C@]12C[C@@H](OCc3ccccc3C#N)[C@](C)(CC1=O)O2 [2-354, 2-((((1S,2R,4R)-4-isopropyl-1-methyl-5-oxo-7-oxabicyclo[2.2.1]heptan-2-yl)oxy)methyl)benzonitrile]
≥ 80%: pest or weed control at 1200 g/ha [1] | pest or weed control at 1200 g/ha (Scirpus juncoides [2]) | pest or weed control at 1200 g/ha (Monochoria vaginalis [3]) | inhibition at 1200 g/ha [4] | inhibition at 1200 g/ha (Scirpus juncoides [6]) | inhibition at 1200 g/ha (Digitaria ciliaris [7]) | inhibition at 1200 g/ha (Echinochloa crus-galli [8]) | inhibition at 1200 g/ha (Digitaria ciliaris [9]) | inhibition at 1200 g/ha (Echinochloa crus-galli [10]) | inhibition at 75 g/ha [11] | inhibition at 75 g/ha [12] | inhibition at 75 g/ha (Digitaria ciliaris [13]; [17]) | inhibition at 75 g/ha (Echinochloa crus-galli [14]; Echinochloa crus-galli, read-out: weed inhibition rate)

Cc1ccccc1CO[C@@H]1C[C@]2(C(C)C)O[C@@]1(C)C=C2c1ccccc1 [3-175, (1R,4S,5R)-1-isopropyl-4-methyl-5-((2-methylbenzyl)oxy)-2-phenyl-7-oxabicyclo[2.2.1]hept-2-ene]
≥ 80%: pest or weed control at 1200 g/ha [1] | pest or weed control at 1200 g/ha (Monochoria vaginalis [3]) | inhibition at 1200 g/ha [4] | inhibition at 1200 g/ha (Monochoria vaginalis [5]) | inhibition at 1200 g/ha (Digitaria ciliaris [7]) | inhibition at 1200 g/ha (Echinochloa crus-galli [8]) | inhibition at 1200 g/ha (Digitaria ciliaris [9]) | inhibition at 1200 g/ha (Echinochloa crus-galli [10])

CC(C)[C@]12C[C@@H](OCc3ccccc3F)[C@](C)(C=C1c1ccccc1)O2 [3-177, (1R,4S,5R)-5-((2-fluorobenzyl)oxy)-1-isopropyl-4-methyl-2-phenyl-7-oxabicyclo[2.2.1]hept-2-ene]
≥ 80%: pest or weed control at 1200 g/ha [1] | pest or weed control at 1200 g/ha (Scirpus juncoides [2]) | pest or weed control at 1200 g/ha (Monochoria vaginalis [3]) | inhibition at 1200 g/ha [4] | inhibition at 1200 g/ha (Monochoria vaginalis [5]) | inhibition at 1200 g/ha (Scirpus juncoides [6]) | inhibition at 1200 g/ha (Digitaria ciliaris [7]) | inhibition at 1200 g/ha (Echinochloa crus-galli [8]) | inhibition at 1200 g/ha (Digitaria ciliaris [9]) | inhibition at 1200 g/ha (Echinochloa crus-galli [10]) | inhibition at 75 g/ha [12]
